According to patent US20230322789A1, “PYRAZOLOPYRIDAZINONE COMPOUND, AND PHARMACEUTICAL COMPOSITION AND USE THEREOF” (BroadenBio Co., Ltd., priority 2020, published 2023):
Counter-ions that a name gives are not always drawn.

molecular target: HPK1 (Homo sapiens (Human), UniProt Q92918); experiment: HPK1 kinase activity inhibition test (ADP-Glo, luminescence); format: biochemical; conditions: HPK1 5 nM, ATP 2 μM, read-out: IC50, inhibitory effects of compounds on HPK1 kinase activity
Description: 1. HPK1 Kinase Activity Inhibition Test
The kinase activity of HPK1 is manifested as activity of autophosphorylation and phosphorylation of downstream substrates. In the process of autophosphorylation, additional substrates are not required, and ATP is consumed to generate ADP. The amount of the product was measured by ADP-Glo reagent and luminescence method to reflect kinase activity.
Test compounds: compounds prepared in the examples of this application.
Prepare compound stock solution: dissolve the compound to be tested in 100% DMSO to make a 10 mM stock solution;
Prepare 4× Kinase Reaction Buffer:
Prepare 2×HPK1 Kinase Solution:
Dilute the stock solution of the compound to be tested by 5 times with […], make a 4-fold equal dilution in a 96-well dilution plate, add 1 μL of the compound to 49 µL of kinase reaction buffer, and shake on a microplate shaker for 20 minutes. Transfer 2 μL of […] kinase solution to 384 reaction plate, add 1 μL of the test compound to the 384 reaction plate (Greiner, 784075), centrifuge for 1 minute (1000 rpm/min), incubate at 25° C. for 10 minutes. Transfer […] of the 4×ATP mixture to a 384 reaction plate, centrifuge for 1 minute (1000 rpm/mm), and incubate at 25° C. for 60 minutes. In the reaction system, the final concentration of DMSO was […]. Transfer 4 μL of ADP-Glo to a 384 reaction plate, centrifuge for 1 minute (1000 rpm/min), and incubate at 25° C. for 40 minutes. Transfer 8 μL detection solution to a 384 reaction plate, centrifuge for 1 minute (1000 rpm/min), and incubate at 25° C. for 40 minutes. The […] signal was read using a Biotek multi-function plate reader, and the […] (half inhibitory concentration) of the compound was obtained using a four-coefficient nonlinear fitting formula.

HPK1, sequence (Q92918 whole entry): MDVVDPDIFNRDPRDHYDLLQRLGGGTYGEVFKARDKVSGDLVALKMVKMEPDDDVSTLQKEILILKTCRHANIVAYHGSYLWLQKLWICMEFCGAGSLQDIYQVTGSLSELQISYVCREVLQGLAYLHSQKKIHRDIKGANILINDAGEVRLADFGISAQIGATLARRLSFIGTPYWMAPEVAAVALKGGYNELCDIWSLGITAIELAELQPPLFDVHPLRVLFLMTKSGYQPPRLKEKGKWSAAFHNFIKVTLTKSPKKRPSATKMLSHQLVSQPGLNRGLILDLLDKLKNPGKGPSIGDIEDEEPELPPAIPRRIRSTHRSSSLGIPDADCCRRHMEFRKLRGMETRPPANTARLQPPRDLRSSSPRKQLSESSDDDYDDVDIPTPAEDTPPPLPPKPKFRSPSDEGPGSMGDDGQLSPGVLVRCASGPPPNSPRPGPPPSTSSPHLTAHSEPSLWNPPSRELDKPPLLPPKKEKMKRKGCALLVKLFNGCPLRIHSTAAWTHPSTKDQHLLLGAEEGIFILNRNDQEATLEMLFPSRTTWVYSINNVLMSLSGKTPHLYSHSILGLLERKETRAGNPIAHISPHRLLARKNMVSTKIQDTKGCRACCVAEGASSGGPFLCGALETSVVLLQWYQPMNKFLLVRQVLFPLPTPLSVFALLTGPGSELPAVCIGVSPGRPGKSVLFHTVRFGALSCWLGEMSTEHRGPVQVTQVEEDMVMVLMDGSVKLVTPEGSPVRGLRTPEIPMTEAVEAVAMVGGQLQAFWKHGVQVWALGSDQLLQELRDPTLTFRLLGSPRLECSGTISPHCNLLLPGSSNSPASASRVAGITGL

Structure (SMILES) | IC50 [nM]
COc1ccncc1-n1nc2c(-c3ccc(-c4cnn(C)c4)cc3)n[nH]c2cc1=O [Compound 152, 5-(4-methoxypyrid-3-yl)-3-(4-(1-methyl-1H-pyrazol-4-yl)phenyl)-1H-pyrazolo[4,3-c]pyridazin-6(5H)-one] | 50 to 500
COc1cc(F)cc(F)c1-n1nc2c(-c3ccc4c(c3)CN(C)CC4)n[nH]c2cc1=O [Compound 158, 5-(2,4-difluoro-6-methoxyphenyl)-3-(2-methyl-1,2,3,4-tetrahydroisoquinolin-7-yl)-1H-pyrazolo[4,3-c]pyridazin-6(5H)-one] | 50 to 500
Cc1cccc(F)c1-n1nc2c(-c3ccc4c(c3)CN(C3CCN(C)CC3)CC4)n[nH]c2cc1=O [Compound 168, 5-(2-fluoro-6-methylphenyl)-3-(2-(1-methylpiperidin-4-yl)-1,2,3,4-tetrahydroisoquinolin-7-yl)-1H-pyrazolo[4,3-c]pyridazin-6(5H)-one] | 50 to 500
Cc1cccc(F)c1-n1nc2c(-c3ccc4c(c3)CN(C(=O)CN3CCOCC3)CC4)n[nH]c2cc1=O [Compound 169, 5-(2-fluoro-6-methylphenyl)-3-(2-(2-morpholinoacetyl)-1,2,3,4-tetrahydroisoquinolin-7-yl)-1H-pyrazolo[4,3-c]pyridazin-6(5H)-one] | 50 to 500
Cc1cc(C#N)cc(F)c1-n1nc2c(-c3ccc4c(c3)CN(C(=O)C(C)O)CC4)n[nH]c2cc1=O (centres unmarked) [Compound 173, 3-fluoro-4-(3-(2-(2-hydroxylpropionyl)-1,2,3,4-tetrahydroisoquinolin-7-yl)-6-oxo-1H-pyrazolo[4,3-c]pyridazin-5(6H)-yl)-5-methylbenzonitrile] | 50 to 500
Cc1cccc(F)c1-n1nc2c(-c3ccc4c(c3)CN(C)[C@H](CO)C4)n[nH]c2cc1=O [Compound 176, (S)-5-(2-fluoro-6-methylphenyl)-3-(3-(hydroxymethyl)-2-methyl-1,2,3,4-tetrahydroisoquinolin-7-yl)-1H-pyrazolo[4,3-c]pyridazin-6(5H)-one] | ≤ 50
Cc1cccc(F)c1-n1nc2c(-c3ccc4c(c3)CN(C)C(C)(C)C4)n[nH]c2cc1=O [Compound 178, 5-(2-fluoro-6-methylphenyl)-3-(2,3,3-trimethyl-1,2,3,4-tetrahydroisoquinolin-7-yl)-1H-pyrazolo[4,3-c]pyridazin-6(5H)-one] | 50 to 500
Cc1cccc(F)c1-n1nc2c(-c3ccc4c(c3)CN(C)[C@@H](CO)C4)n[nH]c2cc1=O [Compound 179, (R)-5-(2-fluoro-6-methylphenyl)-3-(3-(hydroxymethyl)-2-methyl-1,2,3,4-tetrahydroisoquinolin-7-yl)-1H-pyrazolo[4,3-c]pyridazin-6(5H)-one] | 50 to 500
Cc1cccc(F)c1-n1nc2c(-c3ccc4c(c3)CN(C)C(=O)C4)n[nH]c2cc1=O [Compound 182, 7-(5-(2-fluoro-6-methylphenyl)-6-oxo-5,6-dihydro-1H-pyrazolo[4,3-c]pyridazin-3-yl)-2-methyl-1,2-dihydroisoquinolin-3(4H)-one] | 50 to 500
Cc1cccc(F)c1-n1nc2c(-c3ccc4c(c3)C3COC(=O)N3CC4)n[nH]c2cc1=O (centres unmarked) [Compound 185, 9-(5-(2-fluoro-6-methylphenyl)-6-oxo-5,6-dihydro-1H-pyrazolo[4,3-c]pyridazin-3-yl)-5,6-dihydro-1H-oxazolo[4,3-a]isoquinolin-3(10bH)-one] | 500 to 2000
Cc1cccc(F)c1-n1nc2c(-c3ccc4c(c3F)CN(C)CC4)n[nH]c2cc1=O [Compound 188, 3-(8-fluoro-2-methyl-1,2,3,4-tetrahydroisoquinolin-7-yl)-5-(2-fluoro-6-methylphenyl)-1H-pyrazolo[4,3-c]pyridazin-6(5H)-one] | 50 to 500
COc1cccc(F)c1-n1nc2c(-c3ccc4c(c3F)CN(C)CC4)n[nH]c2cc1=O [Compound 190, 3-(8-fluoro-2-methyl-1,2,3,4-tetrahydroisoquinolin-7-yl)-5-(2-fluoro-6-methoxyphenyl)-1H-pyrazolo[4,3-c]pyridazin-6(5H)-one] | 50 to 500

Second part, the molecule after the results:

IC50 [nM] | Structure (SMILES)
50 to 500 | COc1cnccc1-n1nc2c(-c3ccc(N4CCN(C)CC4)cc3)n[nH]c2cc1=O [Compound 153, 5-(3-methoxypyrid-4-yl)-3-(4-(4-methylpiperazin-1-yl)phenyl)-1H-pyrazolo[4,3-c]pyridazin-6(5H)-one]
50 to 500 | COc1cccc(F)c1-n1nc2c(-c3ccc4c(c3)CN(CC(F)F)CC4)n[nH]c2cc1=O [Compound 166, 3-(2-(2,2-difluoroethyl)-1,2,3,4-tetrahydroisoquinolin-7-yl)-5-(2-fluoro-6-methoxyphenyl)-1H-pyrazolo[4,3-c]pyridazin-6(5H)-one]
50 to 500 | Cc1cccc(F)c1-n1nc2c(-c3ccc4c(c3)CN(C3CCOCC3)CC4)n[nH]c2cc1=O [Compound 167, 5-(2-fluoro-6-methylphenyl)-3-(2-(tetrahydro-2H-pyran-4-yl)-1,2,3,4-tetrahydroisoquinolin-7-yl)-1H-pyrazolo[4,3-c]pyridazin-6(5H)-one]
50 to 500 | Cc1cc(C#N)cc(F)c1-n1nc2c(-c3ccc4c(c3)CN(C(=O)CO)CC4)n[nH]c2cc1=O [Compound 172, 3-fluoro-4-(3-(2-(2-hydroxylacetyl)-1,2,3,4-tetrahydroisoquinolin-7-yl)-6-oxo-1H-pyrazolo[4,3-c]pyridazin-5(6H)-yl)-5-methylbenzonitrile]
≤ 50 | COC[C@@H]1Cc2ccc(-c3n[nH]c4cc(=O)n(-c5c(C)cccc5F)nc34)cc2CN1C [Compound 180, (S)-5-(2-fluoro-6-methylphenyl)-3-(3-(methoxymethyl)-2-methyl-1,2,3,4-tetrahydroisoquinolin-7-yl)-1H-pyrazolo[4,3-c]pyridazin-6(5H)-one]
50 to 500 | Cc1cccc(F)c1-n1nc2c(-c3ccc4c(c3)CN3CCOC[C@@H]3C4)n[nH]c2cc1=O [Compound 181, (S)-5-(2-fluoro-6-methylphenyl)-3-(1,3,4,6,11,11a-hexahydro-[1,4]oxazino[4,3-b]isoquinolin-8-yl)-1H-pyrazolo[4,3-c]pyridazin-6(5H)-one]
500 to 2000 | Cc1cccc(F)c1-n1nc2c(-c3ccc4c(c3)C(=O)N(C)CC4)n[nH]c2cc1=O [Compound 183]
50 to 500 | Cc1cccc(F)c1-n1nc2c(-c3ccc4c(c3)C(CO)N(C)CC4)n[nH]c2cc1=O (centres unmarked) [Compound 184, 5-(2-fluoro-6-methylphenyl)-3-(1-(hydroxymethyl)-2-methyl-1,2,3,4-tetrahydroisoquinolin-7-yl)-1H-pyrazolo[4,3-c]pyridazin-6(5H)-one]
500 to 2000 | Cc1cccc(F)c1-n1nc2c(-c3ccc4c(c3)C(CN)N(C)CC4)n[nH]c2cc1=O (centres unmarked) [Compound 186, 3-(1-(aminomethyl)-2-methyl-1,2,3,4-tetrahydroisoquinolin-7-yl)-5-(2-fluoro-6-methylphenyl)-1H-pyrazolo[4,3-c]pyridazin-6(5H)-one hydrochloride]
50 to 500 | Cc1cccc(F)c1-n1nc2c(-c3cnc4c(c3)CN(C)CC4)n[nH]c2cc1=O [Compound 187, 5-(2-fluoro-6-methylphenyl)-3-(6-methyl-5,6,7,8-tetrahydro-1,6-naphthyridin-3-yl)-1H-pyrazolo[4,3-c]pyridazin-6(5H)-one]
50 to 500 | Cc1cccc(F)c1-n1nc2c(-c3cc4c(cc3F)CCN(C)C4)n[nH]c2cc1=O [Compound 189, 3-(6-fluoro-2-methyl-1,2,3,4-tetrahydroisoquinolin-7-yl)-5-(2-fluoro-6-methylphenyl)-1H-pyrazolo[4,3-c]pyridazin-6(5H)-one]
